Results taken from patent US8138148B2, “GDNF derived peptides” (Copenhagen University, priority 2005, dated 2012).

Legend:
[1] = test system: cerebellar granule neurons (CGN); test: Survival assay, cerebellar granule neurons (apoptosis induced by low KCl); assay type: cell-based, Wistar rat; details: 5 mM KCl, two days after induction of apoptosis
Procedure: Cerebellar granule neurons (CGN) were prepared from postnatal day seven Wistar rats largely as previously described by Schousboe et al. (1989). Cerebellar tissue was dissected in modified Krebs-Ringer solution kept on ice, and treated as described for the hippocampal neurons above. All cell cultures were incubated at 37° C. in a humidified atmosphere containing 5% CO2. All animals were handled in accordance with the national guidelines for animal welfare.
Primary cultures of CGN were plated at a density of 100,000 cells/cm^2 on poly-L-lysine coated 8-well permanox slides in Neurobasal-A medium (Gibco, BRL) supplemented with 2% (v/v) B27, 0.5% (v/v) glutamax, 100 U/ml penicillin, 100 μg/ml streptomycin and KCl, making the final concentration of KCl in the medium 40 mM. 24 hours after plating, cytosine-β-D-arabinofuranoside (Ara-C; Sigma-Aldrich) was added to a final concentration of 10 μM to avoid proliferation of glial cells, after which the neurons were allowed to differentiate for further six days at 37° C. Apoptotic cell death was induced by washing twice and changing the medium to Basal Medium Eagle (BME; Gibco BRL) supplemented with 1% (v/v) glutamine, 100 U/ml penicillin and 100 μg/ml streptomycin, 3.5 g D-glucose/l and 1% (v/v) sodium pyruvate (Gibco BRL) together with various concentrations of peptide. Thereby the concentration of potassium in the cultures was reduced to 5 mM KCl (D'Mello et al., 1993). Two days after induction of apoptosis, the cells were fixed with 4% (v/v) formaldehyde and stained with Hoechst 33258 for 25 minutes as described by Kruman et al. (1997). Images of 1000-1500 neurons were randomly recorded for each group in each experiment using computer assisted fluorescence microscopy as described for the hippocampal neurite outgrowth assay. Nuclei from dead and live neurons were counted using the software package Prima developed at the Protein Laboratory, and the fraction of live neurons relative to the total number of neurons was estimated.

[2] = test system: GFRα receptors; test: Surface plasmon resonance (SPR) binding analysis, GFRα receptors; details: immobilized receptor protein, 25° C., PBS pH 7.4
Procedure: Analysis of binding was performed employing a BIAcoreX instrument (Biosensor AB, Uppsala, Sweden) at 25° C. using 10 mM pH 7.4 sodium phosphate containing 150 mM NaCl as running buffer (phosphate-buffered saline, PBS). The flow-rate was 5 μl/min. Data were analysed by non-linear curve-fitting using the manufacturer's software. The receptor proteins, e.g. NCAM Ig1-Ig2 and GFR proteins, were immobilized on a sensor chip CM5 using an amine coupling kit (Biosensor AB) as follows: the chip was activated by 20 μl activation solution; the protein was immobilized using 12 μl 20 μg/ml protein in 10 mM sodium phosphate buffer pH 6.0; the chip was blocked by 35 μl blocking solution. Various peptides at the indicated concentrations were injected into the sensor chip. The curve corresponding to the difference between binding to receptor and a blank chip was used for analysis.

For “VPVRALGLGHRSDEL (listed as Homo sapiens) [A1, artemin fragment]”, the “survival of cerebellar granule neurons (CGN)” value (from here on “survival”) [1] was “increases the survival of CGNs”.

With “EAVSFMDVNSTWR (listed as Homo sapiens) [ArtGi, artemin-derived peptide]” the “survival” value [1] was “increases the survival of CGNs” and the “binding to the GFRα receptors (SPR)” value [2] was “binding”.

In the case of “DEVSFLDAHSRY (listed as Homo sapiens) [NeuGi, neurturin-derived peptide]”, the “survival” value [1] is reported as “increases the survival of CGNs” and the “binding to the GFRα receptors (SPR)” value [2] is reported as “binding”.

In the case of “RSPHDLSLASLLGAG (listed as Homo sapiens) [A2, artemin fragment]”, the “survival” value [1] is reported as “increases the survival of CGNs” and the “binding to the GFRα receptors (SPR)” value [2] is reported as “binding”.

In the case of “VRVSELGLGYASDET (listed as Homo sapiens) [N1, neurturin fragment]”, the “survival” value [1] is reported as “increases the survival of CGNs” and the “binding to the GFRα receptors (SPR)” value [2] is reported as “binding”.

“ARVYDLGLRRLRQRR (listed as Homo sapiens) [N2, neurturin fragment]” was tested, and the “binding to the GFRα receptors (SPR)” value [2] was “binding”.
